From paper PMC1716192, “A Plant-Derived Morphinan as a Novel Lead Compound Active against Malaria Liver Stages” (PLoS Medicine, 2006)
“Also recorded” adds a separate entry of the source.

What was measured:
[1] = test system: P. yoelii (265 BY strain) hepatic stages; experiment: In vitro assay for P. yoelii liver stage inhibition in primary mouse hepatocytes; assay type: cell-based; details: for IC50 / IC90: 48 h
Procedure: P. yoelii (265 BY strain) and P. falciparum (NF 54 strain) sporozoites were obtained by dissection of infected Anopheles stephensi salivary glands. Primary mouse hepatocytes were isolated as previously described and seeded in eight-well Lab-Tek plastic chamber slides (VWR, Fontenay-sous-Bois, France) previously coated with rat-tail collagen I (BD Biosciences, Le Pont de Claix, France) at a density of 10^5 cells per well. Mouse hepatocytes were cultured at 37 °C in 5% CO2 in William's E medium supplemented with 10% fetal calf serum, 1% L-glutamine, 1% sodium pyruvate, 1% insulin-transferrin-selenium, 1% nonessential amino acids, and 1% penicillin-streptomycin (all from Invitrogen, Cergy-Pontoise, France), for 24 h before inoculation of P. yoelii sporozoites (10^5 per well). Human liver fragments were collected following informed consent provided from patients undergoing a partial hepatectomy. The collection and use of these tissues were undertaken in accordance with French Government ethical regulations. Primary human hepatocytes were isolated from the healthy parts of these liver biopsies as previously described. Human hepatocytes were seeded in LabTek plastic chamber slides coated with collagen, at a density of 1.8 × 10^5 cells per well and cultured at 37 °C in 5% CO2 in the same medium as above, supplemented with 10^−7 M dexamethasone (Sigma) and 2% DMSO after complete cell adherence (12–24 h), for at least 48 h before inoculation of P. falciparum sporozoites (10^5 per well). For a standard assay, the plant extract, the purified compound, or primaquine was solubilized in DMSO, further diluted in culture medium (equal DMSO concentrations of <0.3% per well), and then added to hepatocyte cultures at the time of sporozoite inoculation. Three hours later, after sporozoite penetration into hepatocytes, cultures were washed and further incubated in the presence of the drug. Culture medium containing the appropriate drug concentration was changed daily until 48 h for P. yoelii, or until 5 d for P. falciparum. Parasites were quantified on the last day of incubation. For the in vitro timing experiments, tazopsine treatment of P. yoelii and P. falciparum cultures was undertaken for different periods during the cultivation: 0 h to 3 h, 3 h to 24 h, or 24 h to 48 h after P. yoelii sporozoite inoculation (quantification at 48 h), or 0 h to 2 d, or 3 d to 5 d after P. falciparum sporozoite inoculation (quantification at 5 d). […] Cells were stained with Evans Blue (0.4%), and parasites and cells nuclei were stained with 1 μg/ml of diamidino-phenylindole (DAPI; Sigma). Parasite numbers were counted under a fluorescence microscope with a 25× light microscope objective.
IC50 and TC50 were calculated by nonlinear regression using four-parameter logistic curves on the SigmaPlot 10.0 software (http://www.systat.com). Each IC50 or TC50 is expressed as a mean between two independent experiments, followed by the standard error of the mean.

[2] = test system: P. yoelii (265 BY strain) sporozoites; experiment: In vivo assay: P. yoelii sporozoite challenge in mice; set-up: species or system Swiss mice
Procedure: All animal were kept and used in accordance with institutional guidelines and European regulations. Female 6-wk-old Swiss mice (René Janvier, Le Genest-Saint-Isle, France) weighing 24–31 g were randomly allotted to five groups. The drug to be tested was administered orally. Tazopsine was diluted in sterile water and NCP-tazopsine in sterile water with 10% of Tween 80 (Aldrich, Le Chesnay, France). The drugs were administrated on days −1, 0, +1, +2 (+40 h), and the mice challenged on day 0 by retro-orbital injection of P. yoelii (265 BY strain) sporozoites. Group 1 received 100 mg/kg/day of tazopsine (n = 5), and group 2 received sterile water at the same times (controls, n = 5); groups 1 and 2 were challenged with 4,000 sporozoites. Group 3 received 100 mg/kg/d of NCP-tazopsine (n = 5), group 4 received 200 mg/kg/d of NCP-tazopsine (n = 8), and group 5 received 10% Tween in sterile water (controls, n = 5); groups 3, 4, and 5 were challenged with 10,000 sporozoites. Parasites were enumerated by blinded microscopic examination of Giemsa-stained tail-blood smears collected from day 2 to day 23 postinoculation. A mouse was considered negative when no parasites could be observed in 20,000 red blood cells (50 fields under a 50× light microscope objective) on any day during the period of observation. The results presented were derived from two independent duplicate experiments.

[3] = test system: P. yoelii liver stage parasites (18S rRNA); experiment: Real-time PCR quantification of P. yoelii parasites in mouse livers; assay type: in vivo, Swiss mice; details: 42 h PI
Procedure: Female 6-wk-old Swiss mice weighing 24–31 g were randomly allotted to three groups. The drug to be tested was administrated orally on days −1, 0, and +1. Group 1 received 100 mg/kg/d of NCP-tazopsine (n = 4), group 2 received 200 mg/kg/d of NCP-tazopsine (n = 6), whereas the control group received Tween 80 at 10% in sterile water (n = 5). Mice were challenged on day 0 by retro-orbital injection with 120,000 P. yoelii sporozoites and sacrificed 42-h postinoculation. A piece of liver (0.2 g) was harvested and total RNA extracted using the Micro to Midi kit (Invitrogen) according to the manufacturer's instructions. The detection and quantification of liver stage parasites were done as described with minor modifications. Five micrograms of total RNA were treated with DNase from the Turbo DNA-free kit (Ambion, Huntingdon, United Kingdom) and reverse transcribed by Superscript II (Invitrogen) according to the manufacturer's instructions. A total of 6 μl of the 300 μl obtained (an equivalent to 100 ng of the starting total RNA) were used per TaqMan PCR assay (MX4000 multiplex quantitative PCR system; Stratagene, La Jolla, California, United States). […] Lack of nonspecific amplification with mouse genomic DNA was determined in preliminary experiment (unpublished data). […] Absolute transcript copy number for each gene was calculated based on their external standard curves. […]

[4] = 100 mg/kg daily for 4 d oral, challenge with 4,000 P. yoelii sporozoites

Structure (SMILES)	IC50 ([1]; Plasmodium yoelii, Hepatocyte)	IC90 ([1]; Plasmodium yoelii, Hepatocyte)	extension of prepatent period over controls (nonprotected mice) ([2]; 100 mg/kg for 4 d oral, 10,000 sporozoites)	mice protected from infection ([2]; 100 mg/kg for 4 d oral, challenge with 10,000 P. yoelii sporozoites)	mice developing a blood stage infection / protection after sporozoite challenge ([2]; 200 mg/kg daily over 4 d oral, challenge with 10,000 P. yoelii sporozoites)	reduction of liver parasite load versus controls ([3]; fully protective dose (200 mg/kg/d oral), 120,000 sporozoites)	reduction of liver parasite load versus controls ([3]; suboptimal dose (100 mg/kg/d oral), 120,000 sporozoites)	phase of hepatic development most susceptible to inhibition ([1]; P. yoelii, exposure 0-3 h, 3-24 h or 24-48 h)	IC80 ([1]; Plasmodium yoelii, Hepatocyte)	concentration giving total inhibition ([1]; cultured P. yoelii hepatic stages)	Sporozoite invasion and differentiation into early hepatic stages ([1]; exposure 0-3 h postinfection, suboptimal inhibitory concentrations)	extension of prepatent period over controls (nonprotected mice) ([2]; 100 mg/kg daily for 4 d oral, 4,000 sporozoites)	mice protected from infection [2, 4]	mice that developed a blood stage parasitemia [2, 4]
COC1=C2[C@@H]3[C@H](O)c4ccc(OC)c(O)c4[C@]2(CCN3C2CCCC2)C[C@H](O)[C@@H]1O [NCP-tazopsine, N-cyclopentyl-tazopsine]	3.3 ± 0.05 µM	5.2 ± 1.4 µM	2 days	60%	completely protected; also recorded: none of the mice developed a blood stage infection; also recorded: fully protected	99.98%	98.58%							
COC1=C2[C@H]3NCC[C@]2(C[C@H](O)[C@@H]1O)c1c(ccc(OC)c1O)[C@H]3O [Tazopsine, tazopsine]	3.1 ± 0.1 µM	6.3 ± 0.8 µM						most pronounced during the early developmental stages of the hepatic parasite (3 to 24 h)	5 µM	≥ 7.1 µM	not affected	about 4 d	70%	30%
